Reference: BindingDB's records for patent WO2022021841 (Sichuan University, 2022)

Experiments:
[1] = target: T1, Replicase polyprotein 1ab (Severe acute respiratory syndrome coronavirus 2, UniProt P0DTD1); assay: SARS-CoV-2 Coronavirus 3C Protease FRET Assay
Procedure: IC50 values were calculated by fitting a curve of Vmax to experimental values with the controls (DMSO) as the top and bottom limits of the curve. […] GraphPad Prism is the analysis tool for all measurements.

[2] = target: T1, Replicase polyprotein 1ab; assay: SARS-CoV-2 in Vero E6

Row | SMILES | Ki [1] | EC50 [2]
1 | CC1(C)[C@@H]2C(C(=O)N[C@H](C=O)C[C@@H]3CCNC3=O)N(C(=O)COc3ccc4ccccc4c3)C[C@@H]21 (some centres undefined) [WO2022021841, 27] | 54 nM | 1270 nM
2 | CC1(C)[C@@H]2C(C(=O)N[C@H](C=O)C[C@@H]3CCNC3=O)N(C(=O)COc3cc(F)cc(F)c3)C[C@@H]21 (some centres undefined) [WO2022021841, 34] | 20 nM | 1540 nM
3 | COc1ccc(OCC(=O)N2C[C@H]3[C@@H](C2C(=O)N[C@H](C=O)C[C@@H]2CCNC2=O)C3(C)C)cc1F (some centres undefined) [WO2022021841, 28] | 47 nM | 4680 nM
4 | O=C[C@H](C[C@@H]1CCNC1=O)NC(=O)C1[C@H]2CCC[C@H]2CN1C(=O)CCc1cc(F)cc(F)c1 (some centres undefined) [WO2022021841, 19] | 11 nM | 5630 nM
5 | COc1ccc(OCC(=O)N2C[C@H]3[C@@H](C2C(=O)N[C@H](C=O)C[C@@H]2CCNC2=O)C3(C)C)cc1OC (some centres undefined) [WO2022021841, 20] | 12 nM | 1730 nM
6 | COc1ccc(OCC(=O)N2C[C@@H]3CCC[C@@H]3C2C(=O)N[C@H](C=O)C[C@@H]2CCNC2=O)cc1 (some centres undefined) [WO2022021841, 17] | 20 nM | 24700 nM
7 | Cc1cc(Cl)ccc1OCC(=O)N1C[C@@H]2CCC[C@H]2C1C(=O)N[C@H](C=O)C[C@@H]1CCNC1=O (some centres undefined) [WO2022021841, 24] | 22 nM | 1500 nM
8 | O=C[C@H](C[C@@H]1CCNC1=O)NC(=O)C1[C@@H]2CCC[C@H]2CN1C(=O)COc1ccc(Cl)cc1 (some centres undefined) [WO2022021841, 26] | 9 nM | 670 nM
9 | CC1(C)[C@@H]2C(C(=O)N[C@H](C=O)C[C@@H]3CCNC3=O)N(C(=O)COc3ccc(Cl)c(Br)c3)C[C@@H]21 (some centres undefined) [WO2022021841, 30] | 14 nM | 1150 nM
10 | O=C[C@H](C[C@@H]1CCNC1=O)NC(=O)C1[C@@H]2CCC[C@H]2CN1C(=O)CCc1cccc(F)c1 (some centres undefined) [WO2022021841, 37] | 7 nM | 2970 nM
11 | CC1(C)[C@@H]2C(C(=O)N[C@H](C=O)C[C@@H]3CCNC3=O)N(C(=O)COc3ccc(Cl)cc3)C[C@@H]21 (some centres undefined) [WO2022021841, 43] | 9 nM | 530 nM
12 | O=C[C@H](C[C@@H]1CCNC1=O)NC(=O)C1[C@@H]2CCC[C@H]2CN1C(=O)COc1ccc(Cl)c(Cl)c1 (some centres undefined) [WO2022021841, 45] | 19 nM | 830 nM
13 | CC1(C)[C@@H]2C(C(=O)N[C@H](C=O)C[C@@H]3CCNC3=O)N(C(=O)COc3ccc(Cl)cc3Cl)C[C@@H]21 (some centres undefined) [WO2022021841, 44] | 10 nM | 660 nM
14 | CC1(C)[C@@H]2C(C(=O)N[C@H](C=O)C[C@@H]3CCNC3=O)N(C(=O)COc3ccc(Br)cc3Cl)C[C@@H]21 (some centres undefined) [WO2022021841, 31] | 15 nM | 1180 nM
15 | CC1(C)[C@@H]2C(C(=O)N[C@H](C=O)C[C@@H]3CCNC3=O)N(C(=O)COc3ccc(F)c(F)c3)C[C@@H]21 (some centres undefined) [WO2022021841, 33] | 13 nM | 5570 nM
16 | CC1(C)[C@@H]2C(C(=O)N[C@H](C=O)C[C@@H]3CCNC3=O)N(C(=O)CCc3cccc(F)c3)C[C@@H]21 (some centres undefined) [WO2022021841, 36] | 16 nM | 2230 nM
17 | COc1cc(OCC(=O)N2C[C@H]3[C@@H](C2C(=O)N[C@H](C=O)C[C@@H]2CCNC2=O)C3(C)C)cc(OC)c1OC (some centres undefined) [WO2022021841, 35] | 51 nM | 
18 | O=C[C@H](C[C@@H]1CCNC1=O)NC(=O)C1[C@@H]2CCC[C@H]2CN1C(=O)CCc1ccc(Cl)cc1Cl (some centres undefined) [WO2022021841, 67] | 40 nM | 
